Test results from patent publication US20170027936A1, “ABL1 INHIBITOR FOR TREATING AND PREVENTING OCULAR NEOVASCULARISATION” (UCL BUSINESS PLC, priority 2014, published 2017).
“Also recorded” adds a separate entry of the source.

What was measured:
[1] = system: BCR-ABL-expressing Ba/F3 and bone marrow cells; conditions: murine xenograft models of leukaemia; cited from earlier work
retinal vasculature = assay: Physiological retinal angiogenesis in the perinatal mouse (IB4/FN labelled P6 retinal flatmounts); type: in vivo
From the text: FIG. 7 ABL1 is essential for vessel spouting and branching in the retina. […] Vascular extension from the retinal centre to the vascular front is indicated with red arrows. […] Asterisks indicate statistical significance: **P<0.01.
(C,D) Reduced astrocyte, but not vascular FN deposition in Imatinib-treated retinas. […] Note reduced FN staining of astrocyte processes ahead of the vascular front (A), whilst the vasculature was prominently stained for FN.
Examples of abnormally long and wide sprouts without lateral protrusions or connections are indicated with arrows. (G) Quantification of filopodial bursts per vascular front length as an indicator of tip cell number, and quantification of branchpoints behind the vascular front; vehicle, n=7; P4/5, n=3; P2-5, n=4; ***P<0.001 versus control; ^♯P<0.05 for P4/5 versus P2-5treatment.
All animal procedures were performed in accordance with institutional and UK Home Office guidelines. We used C57/616 wild type mice (Charles River Laboratories), littermate wild type and heterozygous Nrp/-null mutants and mice carrying two floxed conditional null Nrp1 alleles (Nrp1^fl/fl) combined with Pdgfb-iCre-ERT2-Egfp with codon-improved Cre on a C57/616 background. For tamoxifen-induction of CRE-mediated recombination, 0.2 mg of tamoxifen (SIGMA) dissolved in peanut oil to 2 mg/ml was administered via intraperitoneal injection into pups at the indicated times. […] OIR was induced as previously described. Briefly, nursing dams and their pups were maintained at 75±3% O2 in an oxygen supply chamber from P7 to P12; dams were rested in room air for 1 h each day. Dams and pups were returned to room air on P12 and the pups culled on P17 to isolate retinas for immunolabelling; the size of the avascular and neovascular areas was determined with Photoshop CS4 (Adobe Inc.) in images acquired with a SZX16 stereofluorescent microscope (Olympus) equipped with a digital camera (Hamamatsu Photonics Ltd).
(§1) Immunofluorescence staining of HDMEC and p6 mouse retinas was analysed with a L5M710 laser scanning confocal microscope.

[2] = system: pathological angiogenesis in the retina; conditions: OIR, P17 retina, daily Imatinib after return to normoxia (P13-16), versus vehicle
HDMEC = assay: Actin remodelling and cell spreading of HDMEC plated on FN (phalloidin staining); type: cell-based, human; conditions: Imatinib-treated
Description: (§2) (A-C) ABL1 kinase activity is essential for PXN phosphorylation. […] In (A), pPXN Y118 (green) is shown together with phalloidin (red) and DAPI (blue) on the left hand side and as single channel in grey scale on the right hand side; scale bar 20 μm. pPXN pixel intensity was quantified in (B) and expressed as fold change in knockdown cells at the indicated time points relative to control cells at 0 min; mean±SEM of four independent experiments.
(§3) Human microvascular dermal EC (HDMEC; Promocell, UK) and human umbilical vein EC (HUVEC; Promocell) were cultured in standard conditions and transfected with Lipofectamine RNAIMAX (Life Technologies). Primary mouse lung EC (MLEC) were isolated from mice between one and two months of age by magnetic-activated cell sorting (MACS) with PECAM antibodies (BD Biosciences, UK). […] In some experiments, cells were stimulated with VEGF165 50 ng/ml for the indicated times.
as §1

PXN Y118 phosphorylation = PXN Y118 phosphorylation in HDMEC plated on FN (immunofluorescence, immunoblotting); type: cell-based, human; conditions: 10 μM Imatinib 30 min before and during plating on FN, versus vehicle
Description: as §2, §3, §1

[3] = P6 retina, Imatinib P2 to P5, versus vehicle
[4] = P6 retina, Imatinib on P4/5 or P2-5, versus vehicle
[5] = P6 retina, Imatinib-treated mice

O=C(NCCO)c1cccc(-c2cc(Nc3ccc(OC(F)(F)F)cc3)ncn2)c1 [GNF-5, N-(2-Hydroxyethyl)-3-(6-(4(trifluoromethoxy)phenylamino)pyrimidin-4-yl)benzamide]
suppression of proliferation of BCR-ABL-expressing cells in vivo [1]: exhibits in vivo efficacy in suppressing the proliferation

Cc1ccc(NC(=O)c2ccc(CN3CCN(C)CC3)cc2)cc1Nc1nccc(-c2cccnc2)n1 [Imatinib]
FN pixel intensity in IB4-positive (vascular) areas (retinal vasculature; [3]): no difference; also recorded: not significantly (ns) changed | astrocyte FN deposition ahead of the vascular front (retinal vasculature; [3]): significantly reduced | vascular extension across the retina (retinal vasculature; [3]): small, but significant reduction; also recorded: Reduced | branchpoints behind the vascular front (retinal vasculature; [4]): significant and lmatinib dose-dependent reduction; also recorded: Dose-dependent decrease | tip cells (filopodial bursts at the vascular front) (retinal vasculature; [4]): significantly fewer | filopodia morphology at the vascular front (retinal vasculature; [5]): thin, wavy and misoriented | interaction of tip cells with microglia (retinal vasculature; [5]): not prevented | sprout morphology at the vascular front (retinal vasculature; [5]): longer and wider, with fewer lateral protrusions connecting to neighbouring sprouts | vascular network density (retinal vasculature; P6 retinal flatmounts, Imatinib versus vehicle): reduced | formation of neovascular tufts (NV area) [2]: effectively inhibited; also recorded: reduced | cell spreading (HDMEC): reduced | stress fibres / cortical actin (phalloidin) (HDMEC): few stress fibres, but abundant cortical actin | PXN Y118 phosphorylation (pixel intensities in immunostains and immunoblots) (PXN Y118 phosphorylation): significantly reduced
